Where a name gives a salt, the structure may show the parent alone.
Molecular target: TRKA (Homo sapiens (Human), UniProt P04629)
Assay: Isolated TRK enzyme assay (HTRF KinEASE-TK), TRKA
Type: biochemical
Details: read-out: Trka enzyme (IC50)

TRKA, sequence (P04629 441-796): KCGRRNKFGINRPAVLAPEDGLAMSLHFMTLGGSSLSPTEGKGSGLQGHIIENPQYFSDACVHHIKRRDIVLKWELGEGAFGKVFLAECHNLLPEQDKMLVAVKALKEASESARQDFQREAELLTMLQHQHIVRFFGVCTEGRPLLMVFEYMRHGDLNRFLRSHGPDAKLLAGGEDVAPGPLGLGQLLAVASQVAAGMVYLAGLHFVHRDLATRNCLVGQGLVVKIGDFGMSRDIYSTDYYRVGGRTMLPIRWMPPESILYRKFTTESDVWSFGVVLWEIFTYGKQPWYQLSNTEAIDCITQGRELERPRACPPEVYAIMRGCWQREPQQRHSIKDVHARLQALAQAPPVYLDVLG

SMILES | IC50 [nM]
O=C(Cc1ccc(Cl)c(Cl)c1)Nc1cncc(C(=O)c2cn(C3COC3)c3ncncc23)c1 [Example 217, 2-(3,4-dichlorophenyl)-N-{5-[(7-oxetan-3-yl-7H-pyrrolo[2,3-d]pyrimidin-5-yl)carbonyl]pyridin-3-yl}acetamide] | 83.3
CC(C)n1cc(C(=O)c2cncc(NC(=O)Cn3cc(-c4ccccn4)nn3)c2)c2cncnc21 [Example 161, N-{5-[(7-isopropyl-7H-pyrrolo[2,3-d]pyrimidin-5-yl)carbonyl]pyridin-3-yl}-2-(4-pyridin-2-yl-1H-1,2,3-triazol-1-yl)acetamide] | 6270
CC(C)(CO)n1cc(C(=O)c2cncc(NC(=O)Cc3ccc(OC(F)(F)F)cc3)c2)c2cnc(N)nc21 [Example 567, N-{5-[2-Amino-7-(2-hydroxy-1,1-dimethyl-ethyl)-7H-pyrrolo[2,3-d]pyrimidine-5-carbonyl]-pyridin-3-yl}-2-(4-trifluoromethoxy-phenyl)-acetamide] | 20.8
CN(C)C(=O)Cn1cc(C(=O)c2cncc(NC(=O)Cc3ccc(Cl)cc3)c2)c2cncnc21 [Example 304, 2-{5-[(5-{[(4-chlorophenyl)acetyl]amino}pyridin-3-yl)carbonyl]-7H-pyrrolo[2,3-d]pyrimidin-7-yl}-N,N-dimethylacetamide] | 3900
CC(C)n1cc(C(=O)c2cncc(NC(=O)Cn3cc(C4CC4)nn3)c2)c2cnc(N)nc21 [Example 249, N-{5-[(2-amino-7-isopropyl-7H-pyrrolo[2,3-d]pyrimidin-5-yl)carbonyl]pyridin-3-yl}-2-(4-cyclopropyl-1H-1,2,3-triazol-1-yl)acetamide] | 35.8
O=C(Cc1ccc(Cl)cc1)Nc1cncc(C(=O)c2cn(C(CO)CO)c3ncncc23)c1 [Example 270, 2-(4-chlorophenyl)-N-(5-(7-(1,3-dihydroxypropan-2-yl)-7H-pyrrolo[2,3-d]pyrimidine-5-carbonyl)pyridin-3-yl)acetamide] | 343
N#Cc1ccc(CC(=O)Nc2cncc(C(=O)c3c[nH]c4ncncc34)c2)cc1 [Example 570, 2-(4-Cyano-phenyl)-N-[5-(7H-pyrrolo[2,3-d]pyrimidine-5-carbonyl)-pyridin-3-yl]-acetamide] | 6970
Cc1n[nH]cc1C(=O)Nc1cncc(C(=O)c2cn(C(C)C)c3ncncc23)c1 [Example 411, 3-Methyl-1H-pyrazole-4-carboxylic acid [5-(7-isopropyl-7H-pyrrolo[2,3-d]pyrimidine-5-carbonyl)-pyridin-3-yl]-amide] | 9800
CC(C)n1cc(C(=O)c2cncc(NC(=O)c3ccncc3F)c2)c2cncnc21 [Example 460, 3-Fluoro-N-[5-(7-isopropyl-7H-pyrrolo[2,3-d]pyrimidine-5-carbonyl)-pyridin-3-yl]-isonicotinamide] | 9800
CC(C)n1cc(C(=O)c2cncc(NC(=O)Cn3nc4ccccc4n3)c2)c2cncnc21 [Example 108, 2-(2H-benzotriazol-2-yl)-N-{5-[(7-isopropyl-7H-pyrrolo[2,3-d]pyrimidin-5-yl)carbonyl]pyridin-3-yl}acetamide] | 7.63
CC(C)n1cc(C(=O)c2cncc(NC(=O)c3nc(Cl)c(Cl)[nH]3)c2)c2cncnc21 [Example 482, 4,5-Dichloro-1H-imidazole-2-carboxylic acid [5-(7-isopropyl-7H-pyrrolo[2,3-d]pyrimidine-5-carbonyl)-pyridin-3-yl]-amide] | 6860
CC(C)n1cc(C(=O)c2cncc(NC(=O)c3cnn(CCC#N)c3)c2)c2cncnc21 [Example 452, 1-(2-Cyano-ethyl)-1H-pyrazole-4-carboxylic acid [5-(7-isopropyl-7H-pyrrolo[2,3-d]pyrimidine-5-carbonyl)-pyridin-3-yl]amide] | 542
Cc1cc2ncn(CC(=O)Nc3cncc(C(=O)c4cn(C(C)C)c5ncncc45)c3)c2cc1C [Example 160, 2-(5,6-dimethyl-1H-benzimidazol-1-yl)-N-{5-[(7-isopropyl-7H-pyrrolo[2,3-d]pyrimidin-5-yl)carbonyl]pyridin-3-yl}acetamide] | 1080
CC(C)n1cc(C(=O)c2cncc(NC(=O)c3n[nH]c4ncccc34)c2)c2cncnc21 [Example 511, 1H-Pyrazolo[3,4-b]pyridine-3-carboxylic acid [5-(7-isopropyl-7H-pyrrolo[2,3-d]pyrimidine-5-carbonyl)-pyridin-3-yl]-amide] | 144
N#Cc1ccc(CC(=O)Nc2cncc(C(=O)c3cn(C45CC(C4)C5)c4nc(N)ncc34)c2)cc1 [Example 582, N-[5-(2-Amino-7-bicyclo[1.1.1]pent-1-yl-7H-pyrrolo[2,3-d]pyrimidine-5-carbonyl)-pyridin-3-yl]-2-(4-cyano-phenyl)-acetamide] | 9.79
CC(C)n1cc(C(=O)c2cncc(NC(=O)Cc3cccc(CN4CCC4)c3)c2)c2cncnc21 [Example 266, 2-[3-(azetidin-1-ylmethyl)phenyl]-N-{5-[(7-isopropyl-7H-pyrrolo[2,3-d]pyrimidin-5-yl)carbonyl]pyridin-3-yl}acetamide formate salt] | 2950

SMILES | IC50 [nM]
CC(CO)(CO)n1cc(C(=O)c2cncc(NC(=O)Cc3ccc(F)c(C(F)(F)F)c3)c2)c2cncnc21 [Example 263, N-(5-(7-(1,3-dihydroxy-2-methylpropan-2-yl)-7H-pyrrolo[2,3-d]pyrimidine-5-carbonyl)pyridin-3-yl)-2-(4-fluoro-3-(trifluoromethyl)phenyl)acetamide] | 73.6
CC(C)(C)n1cc(C(=O)c2cncc(NC(=O)Cc3coc(C4CC4)n3)c2)c2cncnc21 [Example 199, N-{5-[(7-tert-butyl-7H-pyrrolo[2,3-d]pyrimidin-5-yl)carbonyl]pyridin-3-yl}-2-(2-cyclopropyl-1,3-oxazol-4-yl)acetamide] | 22.1
O=C(Cc1ccc(C(F)(F)F)cc1)Nc1cncc(C(=O)c2cn(C3(CO)COC3)c3ncncc23)c1 [Example 300, N-{5-[7-(3-Hydroxymethyl-oxetan-3-yl)-7H-pyrrolo[2,3-d]pyrimidine-5-carbonyl]-pyridin-3-yl}-2-(4-trifluoromethyl-phenyl)-acetamide] | 52.2
O=C(Cc1ccc(C(F)(F)F)cc1)Nc1cncc(C(=O)c2cn(C(CO)CO)c3ncncc23)c1 [Example 273, N-(5-(7-(1,3-dihydroxypropan-2-yl)-7H-pyrrolo[2,3-d]pyrimidine-5-carbonyl)pyridin-3-yl)-2-(4-(trifluoromethyl)phenyl)acetamide] | 342
O=C(Cc1ccc(Cl)c(Cl)c1)Nc1cncc(C(=O)c2cn(C(CO)CO)c3ncncc23)c1 [Example 276, 2-(3,4-dichlorophenyl)-N-[5-({7-[2-hydroxy-1-(hydroxymethyl)ethyl]-7H-pyrrolo[2,3-d]pyrimidin-5-yl}carbonyl)pyridin-3-yl]acetamide] | 295
COCC(C)(C)n1cc(C(=O)c2cncc(NC(=O)Cn3ccc(C4CC4)n3)c2)c2cncnc21 [Example 538, 2-(3-Cyclopropyl-pyrazol-1-yl)-N-{5-[7-(2-methoxy-1,1-dimethyl-ethyl)-7H-pyrrolo[2,3-d]pyrimidine-5-carbonyl]-pyridin-3-yl}-acetamide] | 1.51
CC(C)n1cc(C(=O)c2cncc(NC(=O)c3ccc(C(F)(F)F)cc3)c2)c2cncnc21 [Example 345, N-(5-{[7-(propan-2-yl)-7H-pyrrolo[2,3-d]pyrimidin-5-yl]carbonyl}pyridin-3-yl)-4-(trifluoromethyl)benzamide] | 362
Cc1ccnc(C(=O)Nc2cncc(C(=O)c3cn(C(C)C)c4ncncc34)c2)c1 [Example 388, 4-Methyl-pyridine-2-carboxylic acid[5-(7-isopropyl-7H-pyrrolo[2,3-d]pyrimidine-5-carbonyl)-pyridin-3-yl]-amide] | 165
CC(C)n1cc(C(=O)c2cncc(NC(=O)c3cncc(Cl)c3)c2)c2cncnc21 [Example 430, 5-Chloro-N-[5-(7-isopropyl-7H-pyrrolo[2,3-d]pyrimidine-5-carbonyl)-pyridin-3-yl]-nicotinamide] | 297
COc1ccc(C(=O)Nc2cncc(C(=O)c3cn(C(C)C)c4ncncc34)c2)nc1 [Example 425, 5-Methoxy-pyridine-2-carboxylic acid [5-(7-isopropyl-7H-pyrrolo[2,3-d]pyrimidine-5-carbonyl)-pyridin-3-yl]-amide] | 796
CC(C)n1cc(C(=O)c2cncc(NC(=O)Cn3ncc4ccccc43)c2)c2cncnc21 [Example 103, 2-(1H-indazol-1-yl)-N-{5-[(7-isopropyl-7H-pyrrolo[2,3-d]pyrimidin-5-yl)carbonyl]pyridin-3-yl}acetamide] | 41.7
CC(C)n1cc(C(=O)c2cncc(NC(=O)Cn3ncc4cccc(F)c43)c2)c2cncnc21 [Example 107, 2-(7-fluoro-1H-indazol-1-yl)-N-{5-[(7-isopropyl-7H-pyrrolo[2,3-d]pyrimidin-5-yl)carbonyl]pyridin-3-yl}acetamide] | 12.3
CC(C)(CO)n1cc(C(=O)c2cncc(NC(=O)Cc3ncc(F)cc3F)c2)c2cnc(N)nc21 [Example 555, N-{5-[2-Amino-7-(2-hydroxy-1,1-dimethyl-ethyl)-7H-pyrrolo[2,3-d]pyrimidine-5-carbonyl]-pyridin-3-yl}-2-(3,5-difluoro-pyridin-2-yl)-acetamide] | 150
CC(C)n1cc(C(=O)c2cncc(NC(=O)c3cc(C4CC4)on3)c2)c2cncnc21 [Example 496, 5-Cyclopropyl-isoxazole-3-carboxylic acid [5-(7-isopropyl-7H-pyrrolo[2,3-d]pyrimidine-5-carbonyl)-pyridin-3-yl]-amide] | 199
CC(C)n1cc(C(=O)c2cncc(NC(=O)Cn3nnc4ccccc43)c2)c2cncnc21 [Example 135, 2-(1H-benzotriazol-1-yl)-N-{5-[(7-isopropyl-7H-pyrrolo[2,3-d]pyrimidin-5-yl)carbonyl]pyridin-3-yl}acetamide] | 312
CC1(n2cc(C(=O)c3cncc(NC(=O)Cn4cc(C(F)(F)F)nn4)c3)c3cncnc32)COC1 [Example 312, N-(5-{[7-(3-methyloxetan-3-yl)-7H-pyrrolo[2,3-d]pyrimidin-5-yl]carbonyl}pyridin-3-yl)-2-[4-(trifluoromethyl)-1H-1,2,3-triazol-1-yl]acetamide] | 166

From patent publication US8846698B2, “Pyrrolo[2,3-d]pyrimidine tropomysin-related kinase inhibitors” (Pfizer Limited, priority 2011, dated 2014)
